Data published in US11045457B2, “Piperidinyl-3-(aryloxy)propanamides and propanoates” (priority 2018, dated 2021).

Biological target: SSTR4 (Homo sapiens (Human), UniProt P31391)
Assay: Inhibition of forskolin stimulated cAMP in CHO-K1 cells overexpressing SSTR4
Assay type: cell-based
Settings: for EC50: read-out: SSTR4 Activity pEC50 (converted)
Experimental: Inhibition of Forskolin Stimulated cAMP in Cells Overexpressing SSTR4
This cell-based assay measures the ability of compounds to inhibit forskolin stimulated cAMP in CHO-K1 cells overexpressing SSTR4. CHO-K1 cells overexpressing SSTR4 (CHO-SSTR4) are purchased from DiscoveRx (product code 95-0059C2). The CHO-SSTR4 cells are maintained in F12K media with 10% Fetal Bovine Serum (Hyclone), 1% Pen/Strep (Life Technologies), and 800 μg/mL G418 (Life Technologies). […] The next day, the culture media is removed from the cells and the cells are washed (added then removed) with Kreb's Ringer Buffer (ZenBio, KRB-1000 mL). […] The cells are incubated in […] for 30 minutes at room temperature. Cellular cAMP levels are detected with a HTRF LANCE Ultra cAMP kit (Perkin Elmer, catalog number TRF0264).
The assay is performed in accordance with the manufacturer's instructions. Five μL of diluted Eu-W8044 labeled streptavidin (dilution: 1:50 in cAMP Detection Buffer) is added to each well. Then 5 μL of diluted biotin cAMP (dilution: 1:150 in cAMP Detection Buffer) is added to each well. The plates are covered and allowed to incubate for 60 minutes at room temperature on a shaker. […] The pEC50 values are generated using Activity Base for Screening Data Management.

Chain of SSTR4 (P31391 whole entry): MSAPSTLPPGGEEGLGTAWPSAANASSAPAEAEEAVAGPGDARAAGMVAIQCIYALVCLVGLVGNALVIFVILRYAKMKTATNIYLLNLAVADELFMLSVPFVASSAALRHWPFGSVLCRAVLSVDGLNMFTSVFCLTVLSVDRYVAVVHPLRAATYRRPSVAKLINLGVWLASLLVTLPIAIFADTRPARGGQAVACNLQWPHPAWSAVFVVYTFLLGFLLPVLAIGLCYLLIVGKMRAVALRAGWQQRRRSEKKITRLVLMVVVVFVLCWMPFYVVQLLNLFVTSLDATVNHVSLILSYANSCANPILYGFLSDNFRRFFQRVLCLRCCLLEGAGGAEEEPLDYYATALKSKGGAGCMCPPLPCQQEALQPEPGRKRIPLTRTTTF

| SMILES | SSTR4 Activity pEC50 | EC50 [µM] |
| --- | --- | --- |
| CCOc1cccnc1OCC(C)(C)C(=O)NC1CCN(C)CC1 [Example 54, 3-((3-ethoxypyridin-2-yl)oxy)-2,2-dimethyl-N-(1-methylpiperidin-4-yl)propanamide] | 7.0 | – |
| CN1CCC(NC(=O)C2(COc3ncccc3C3CC3)CCC2)CC1 [Example 89, 1-(((3-cyclopropylpyridin-2-yl)oxy)methyl)-N-(1-methylpiperidin-4-yl)cyclobutane-1-carboxamide] | 6.8 | – |
| CN1CCC(NC(=O)C(C)(C)COc2nnc(Cl)cc2C(F)(F)F)CC1 [Example 98, 3-((6-chloro-4-(trifluoromethyl)pyridazin-3-yl)oxy)-2,2-dimethyl-N-(1-methylpiperidin-4-yl)propanamide] | 6.2 | – |
| CN1CCC(NC(=O)C(C)(C)COc2ncccc2C(F)(F)F)CC1(C)C (stereo not shown) [Example 132, 2,2-dimethyl-3-((3-(trifluoromethyl)pyridin-2-yl)oxy)-N-(1,2,2-trimethylpiperidin-4-yl)propanamide] | 7.1 | – |
| CN1CCC(NC(=O)C(C)(C)COc2ncc(F)cc2F)CC1 [Example 40, 3-((3,5-difluoropyridin-2-yl)oxy)-2,2-dimethyl-N-(1-methylpiperidin-4-yl)propanamide] | 6.1 | – |
| CN1CCC(NC(=O)C(C)(C)COc2nccnc2C2CC2)CC1 [Example 80, 3-((3-cyclopropylpyrazin-2-yl)oxy)-2,2-dimethyl-N-(1-methylpiperidin-4-yl)propanamide] | 6.1 | – |
| CCc1nccnc1OCC(C)(C)C(=O)NC1CCN(C)CC1 [Example 87, 3-((3-ethylpyrazin-2-yl)oxy)-2,2-dimethyl-N-(1-methylpiperidin-4-yl)propanamide] | 6.4 | – |
| CCc1cccnc1OCC(C)(C)C(=O)N[C@@H]1CCN(C)C1 [Example 86, (R)-3-((3-ethylpyridin-2-yl)oxy)-2,2-dimethyl-N-(1-methylpyrrolidin-3-yl)propanamide] | 7.3 | – |
| Cc1cnc(OCC(C)(C)C(=O)N[C@H]2CCN(C)C[C@H]2C)c(C)c1 (relative stereo) [Example 32, cis-N-(1,3-dimethylpiperidin-4-yl)-3-((3,5-dimethylpyridin-2-yl)oxy)-2,2-dimethylpropanamide] | 5.8 | – |
| CN1CCC(NC(=O)C(C)(C)COc2cnccc2C(F)(F)F)CC1 [Example 42, 2,2-dimethyl-N-(1-methylpiperidin-4-yl)-3-((4-(trifluoromethyl)pyridin-3-yl)oxy)propanamide] | 7.2 | – |
| Cc1cnc(OCC(C)(C)C(=O)N[C@@H]2CCN(C)C2)c(C2CC2)c1 [Example 7, (R)-3-((3-cyclopropyl-5-methylpyridin-2-yl)oxy)-2,2-dimethyl-N-(1-methylpyrrolidin-3-yl)propanamide] | 7.2 | – |
| Cc1cc(C(F)(F)F)cnc1OCC(C)(C)C(=O)NC1CCN(C)CC1 [Example 91, 2,2-dimethyl-3-((3-methyl-5-(trifluoromethyl)pyridin-2-yl)oxy)-N-(1-methylpiperidin-4-yl)propanamide] | 6.0 | – |
| CN(C(=O)C(C)(C)COc1ncccc1C(F)(F)F)[C@H]1CCNC[C@@H]1F [Example 160, N-((3S,4S)-3-fluoropiperidin-4-yl)-N,2,2-trimethyl-3-((3-(trifluoromethyl)pyridin-2-yl)oxy)propanamide] | 6.4 | – |
| C[C@@H]1C[C@H](NC(=O)C(C)(C)COc2ncccc2C(F)(F)F)CN1C (relative stereo) [Example 134, cis-N-(1,5-dimethylpyrrolidin-3-yl)-2,2-dimethyl-3-((3-(trifluoromethyl)pyridin-2-yl)oxy)propanamide] | – | 2 |
| CN1CCC(NC(=O)C(C)(C)COc2ncccc2C(F)(F)F)CC12CC2 (stereo not shown) [Example 175, 2,2-dimethyl-N-(4-methyl-4-azaspiro[2.5]octan-7-yl)-3-((3-(trifluoromethyl)pyridin-2-yl)oxy)propanamide] | 6.2 | – |
| Cc1ccc([C@@H]2CN(C)C[C@H]2NC(=O)C(C)(C)COc2ncccc2C2CC2)cn1 (relative stereo) [Example 61, trans-3-((3-cyclopropylpyridin-2-yl)oxy)-2,2-dimethyl-N-(1-methyl-4-(6-methylpyridin-3-yl)pyrrolidin-3-yl)propanamide] | – | 0.0631 |
| Cc1cccnc1OCC1(C(=O)NC2CCN(C)CC2)CC1 [Example 63, N-(1-methylpiperidin-4-yl)-1-(((3-methylpyridin-2-yl)oxy)methyl)cyclopropane-1-carboxamide] | 5.8 | – |

| SMILES | SSTR4 Activity pEC50 | EC50 [µM] |
| --- | --- | --- |
| CC(C)(COc1ncccc1C(F)(F)F)C(=O)NC1CNCC1(F)F (stereo not shown) [Example 131, N-(4,4-difluoropyrrolidin-3-yl)-2,2-dimethyl-3-((3-(trifluoromethyl)pyridin-2-yl)oxy)propanamide] | 6.1 | – |
| CC(C)(COc1ncccc1C(F)(F)F)C(=O)NC1CCNCC1(F)F (stereo not shown) [Example 159, N-(3,3-difluoropiperidin-4-yl)-2,2-dimethyl-3-((3-(trifluoromethyl)pyridin-2-yl)oxy)propanamide] | 6.7 | – |
| CN1CCC(NC(=O)C(C)(C)COc2cccnc2C(F)(F)F)CC1 [Example 52, 2,2-dimethyl-N-(1-methylpiperidin-4-yl)-3-((2-(trifluoromethyl)pyridin-3-yl)oxy)propanamide] | – | 0.0794 |
| CN1CC[C@@H](c2cnn(C)c2)[C@H](NC(=O)C(C)(C)COc2ncccc2C(F)(F)F)C1 (relative stereo) [Example 169, 2,2-dimethyl-N-(trans-1-methyl-4-(1-methyl-1H-pyrazol-4-yl)piperidin-3-yl)-3-((3-(trifluoromethyl)pyridin-2-yl)oxy)propanamide] | – | 0.251 |
| CN1CC[C@H](CNC(=O)C(C)(C)COc2ncccc2C(F)(F)F)C1 [Example 36, (R)-2,2-dimethyl-N-((1-methylpyrrolidin-3-yl)methyl)-3-((3-(trifluoromethyl)pyridin-2-yl)oxy)propanamide] | 6.1 | – |
| CCc1ccccc1OCC(C)(C)C(=O)N[C@@H]1CN(C)C[C@H]1OC (relative stereo) [Example 96, trans-3-(2-ethylphenoxy)-N-(4-methoxy-1-methylpyrrolidin-3-yl)-2,2-dimethylpropanamide] | – | 0.2 |
| CC[C@H]1CN(C)CC[C@@H]1NC(=O)C(C)(C)COc1ncccc1C(F)(F)F [Example 145, N-((3S,4S)-3-ethyl-1-methylpiperidin-4-yl)-2,2-dimethyl-3-((3-(trifluoromethyl)pyridin-2-yl)oxy)propanamide] | 6.2 | – |
| CN1C[C@@H](NC(=O)C(C)(C)COc2ncccc2C(F)(F)F)[C@H](c2ccc(Cl)cc2)C1 (relative stereo) [Example 56, trans-N-(4-(4-chlorophenyl)-1-methylpyrrolidin-3-yl)-2,2-dimethyl-3-((3-(trifluoromethyl)pyridin-2-yl)oxy)propanamide] | – | 0.0251 |
| CCC1CC(NC(=O)C(C)(C)COc2ncccc2OC(F)(F)F)CCN1C (stereo not shown) [Example 146, N-(2-ethyl-1-methylpiperidin-4-yl)-2,2-dimethyl-3-((3-(trifluoromethoxy)pyridin-2-yl)oxy)propanamide] | 6.7 | – |
| Cc1nc(Cl)ccc1OCC(C)(C)C(=O)NC1CCN(C)CC1 [Example 46, 3-((6-chloro-2-methylpyridin-3-yl)oxy)-2,2-dimethyl-N-(1-methylpiperidin-4-yl)propanamide] | 5.4 | – |
| Cc1cc(Cl)cnc1OCC(C)(C)C(=O)NC1CCN(C)CC1 [Example 48, 3-((5-chloro-3-methylpyridin-2-yl)oxy)-2,2-dimethyl-N-(1-methylpiperidin-4-yl)propanamide] | 6.8 | – |
| Cc1cnc(OCC(C)(C)C(=O)N[C@@H]2CCN(C)C[C@H]2C)c(C)c1 (single isomer, unassigned) [Example 140] | 6.2 | – |
| Cc1cccnc1OCC(C)(C)C(=O)N[C@@H]1CCN(C)C[C@H]1C [Example 142, N-((3R,4R)-1,3-dimethylpiperidin-4-yl)-2,2-dimethyl-3-((3-methylpyridin-2-yl)oxy)propanamide] | 6.1 | – |
| C[C@@H]1CN(C)CC[C@@H]1NC(=O)C(C)(C)COc1ncccc1C(F)(F)F (racemic) [Example 12, cis-N-(1,3-dimethylpiperidin-4-yl)-2,2-dimethyl-3-((3-(trifluoromethyl)pyridin-2-yl)oxy)propanamide] | – | 0.126 |
| Cc1cnc(OCC(C)(C)C(=O)N[C@@H]2CN(C)C[C@H]2c2ccc(Cl)cc2)c(C)c1 (relative stereo) [Example 93, trans-N-(4-(4-chlorophenyl)-1-methylpyrrolidin-3-yl)-3-((3,5-dimethylpyridin-2-yl)oxy)-2,2-dimethylpropanamide] | – | 0.2 |
| CN1CCC(NC(=O)C(C)(C)COc2ccccc2F)CC1 [Example 195, 3-(2-fluorophenoxy)-2,2-dimethyl-N-(1-methylpiperidin-4-yl)propanamide] | 6.5 | – |
| Cc1ccc(C2CC2)c(OCC(C)(C)C(=O)N[C@@H]2CCN(C)C2)n1 [Example 10, (R)-3-((3-cyclopropyl-6-methylpyridin-2-yl)oxy)-2,2-dimethyl-N-(1-methylpyrrolidin-3-yl)propanamide] | 6.8 | – |
